Measured values published in the supplement of paper PMC10307832.

What was measured:
Assay in all cases: relative viability (nuclei count vs DMSO), 5 days (fraction); higher = more cells survive
BMX-IN-1 + OSI-027 = compound: C=CC(=O)Nc1cc(-n2c(=O)ccc3cnc4ccc(-c5ccc(NS(C)(=O)=O)cc5)cc4c32)ccc1C [BMX-IN-1] + COc1cccc2cc(-c3nc([C@H]4CC[C@H](C(=O)O)CC4)n4ncnc(N)c34)[nH]c12 [OSI-027] (partner 0.5 µM)
Outline: (§1)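 Lung cancer cell lines in 1536-well plates were dosed by pin tool the day after seeding, either with one drug alone or with a fixed anchor-drug dose plus five library-drug doses (not always all listed) in √10 steps. After 5 days, cells were fixed and their nuclei stained in one step (final 0.05% Triton X-100, 1% formaldehyde, 1 ug/ml Hoechst), then counted on 4× images. Relative viability is the nuclei count in treated wells divided by that in vehicle wells. Values are medians of duplicate plates.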

BMX-IN-1 + Luminespib = compound: C=CC(=O)Nc1cc(-n2c(=O)ccc3cnc4ccc(-c5ccc(NS(C)(=O)=O)cc5)cc4c32)ccc1C [BMX-IN-1] + CCNC(=O)c1noc(-c2cc(C(C)C)c(O)cc2O)c1-c1ccc(CN2CCOCC2)cc1 [Luminespib] (partner 0.01 µM)
Outline: as §1

Ibrutinib + Tozasertib = compound: C=CC(=O)N1CCC[C@@H](n2nc(-c3ccc(Oc4ccccc4)cc3)c3c(N)ncnc32)C1 [Ibrutinib] + Cc1cc(Nc2cc(N3CCN(C)CC3)nc(Sc3ccc(NC(=O)C4CC4)cc3)n2)n[nH]1 [Tozasertib] (partner 0.1 µM)
Outline: as §1

BMX-IN-1 + Tozasertib = compound: C=CC(=O)Nc1cc(-n2c(=O)ccc3cnc4ccc(-c5ccc(NS(C)(=O)=O)cc5)cc4c32)ccc1C [BMX-IN-1] + Cc1cc(Nc2cc(N3CCN(C)CC3)nc(Sc3ccc(NC(=O)C4CC4)cc3)n2)n[nH]1 [Tozasertib] (partner 0.1 µM)
Outline: as §1

For NCI-H661, which relative viability (BMX-IN-1 + OSI-027; first compound 0.02 µM) is on record?
Its relative viability is 0.638.

And the relative viability (BMX-IN-1 + OSI-027; first compound 0.2 µM)?
Its relative viability is 0.798.

And the relative viability (BMX-IN-1 + OSI-027; first compound 0.6325 µM)?
Its relative viability is 0.772.

And the relative viability (BMX-IN-1 + OSI-027; first compound 2 µM)?
Its relative viability is 0.761.

What about the relative viability (BMX-IN-1 + Luminespib; first compound 0.02 µM) of the same cell line?
The relative viability was 1.

What about the relative viability (BMX-IN-1 + Luminespib; first compound 0.2 µM) of the same cell line?
Its relative viability is 0.916.

What about the relative viability (BMX-IN-1 + Luminespib; first compound 0.6325 µM) of the same cell line?
Its relative viability is 1.03.

And the relative viability (BMX-IN-1 + Luminespib; first compound 2 µM)?
The relative viability was 0.863.

And the relative viability (Ibrutinib + Tozasertib; first compound 0.005 µM)?
The relative viability was 0.353.

And the relative viability (Ibrutinib + Tozasertib; first compound 0.01581 µM)?
Its relative viability is 0.372.

What about the relative viability (Ibrutinib + Tozasertib; first compound 0.05 µM) of the same cell line?
Its relative viability is 0.384.

And the relative viability (Ibrutinib + Tozasertib; first compound 0.1581 µM)?
Its relative viability is 0.348.

And the relative viability (Ibrutinib + Tozasertib; first compound 0.5 µM)?
The relative viability was 0.389.

And the relative viability (BMX-IN-1 + Tozasertib; first compound 0.02 µM)?
Its relative viability is 0.378.

What about the relative viability (BMX-IN-1 + Tozasertib; first compound 0.2 µM) of the same cell line?
The relative viability was 0.358.

What about the relative viability (BMX-IN-1 + Tozasertib; first compound 0.6325 µM) of the same cell line?
The relative viability was 0.352.

What about the relative viability (BMX-IN-1 + Tozasertib; first compound 2 µM) of the same cell line?
Its relative viability is 0.348.

With NCI-H727 as the cell line, how does the relative viability (BMX-IN-1 + OSI-027; first compound 0.02 µM) read?
The relative viability was 0.846.

And the relative viability (BMX-IN-1 + OSI-027; first compound 0.2 µM)?
The relative viability was 0.597.

And the relative viability (BMX-IN-1 + OSI-027; first compound 0.6325 µM)?
Its relative viability is 0.648.

And the relative viability (BMX-IN-1 + OSI-027; first compound 2 µM)?
Its relative viability is 0.612.

And the relative viability (BMX-IN-1 + Luminespib; first compound 0.02 µM)?
The relative viability was 0.33.

What about the relative viability (BMX-IN-1 + Luminespib; first compound 0.2 µM) of the same cell line?
The relative viability was 0.366.

What about the relative viability (BMX-IN-1 + Luminespib; first compound 0.6325 µM) of the same cell line?
Its relative viability is 0.343.

And the relative viability (BMX-IN-1 + Luminespib; first compound 2 µM)?
The relative viability was 0.243.

What about the relative viability (Ibrutinib + Tozasertib; first compound 0.005 µM) of the same cell line?
The relative viability was 0.542.

What about the relative viability (Ibrutinib + Tozasertib; first compound 0.01581 µM) of the same cell line?
Its relative viability is 0.578.

And the relative viability (Ibrutinib + Tozasertib; first compound 0.05 µM)?
Its relative viability is 0.624.

And the relative viability (Ibrutinib + Tozasertib; first compound 0.5 µM)?
Its relative viability is 0.533.

And the relative viability (BMX-IN-1 + Tozasertib; first compound 0.02 µM)?
The relative viability was 0.691.

What about the relative viability (BMX-IN-1 + Tozasertib; first compound 0.2 µM) of the same cell line?
The relative viability was 0.646.

And the relative viability (BMX-IN-1 + Tozasertib; first compound 0.6325 µM)?
Its relative viability is 0.572.

What about the relative viability (BMX-IN-1 + Tozasertib; first compound 2 µM) of the same cell line?
Its relative viability is 0.597.

Which relative viability (BMX-IN-1 + OSI-027; first compound 0.02 µM) does the source give for NCI-H838 here?
Its relative viability is 0.424.

And the relative viability (BMX-IN-1 + OSI-027; first compound 0.2 µM)?
Its relative viability is 0.389.

And the relative viability (BMX-IN-1 + OSI-027; first compound 0.6325 µM)?
Its relative viability is 0.438.

What about the relative viability (BMX-IN-1 + OSI-027; first compound 2 µM) of the same cell line?
The relative viability was 0.389.

And the relative viability (BMX-IN-1 + Luminespib; first compound 0.02 µM)?
The relative viability was 0.245.

And the relative viability (BMX-IN-1 + Luminespib; first compound 0.2 µM)?
Its relative viability is 0.291.

And the relative viability (BMX-IN-1 + Luminespib; first compound 0.6325 µM)?
The relative viability was 0.302.

What about the relative viability (BMX-IN-1 + Luminespib; first compound 2 µM) of the same cell line?
The relative viability was 0.294.

What about the relative viability (Ibrutinib + Tozasertib; first compound 0.005 µM) of the same cell line?
Its relative viability is 0.261.

What about the relative viability (Ibrutinib + Tozasertib; first compound 0.01581 µM) of the same cell line?
The relative viability was 0.261.

What about the relative viability (Ibrutinib + Tozasertib; first compound 0.05 µM) of the same cell line?
The relative viability was 0.285.

What about the relative viability (Ibrutinib + Tozasertib; first compound 0.1581 µM) of the same cell line?
The relative viability was 0.27.

What about the relative viability (Ibrutinib + Tozasertib; first compound 0.5 µM) of the same cell line?
The relative viability was 0.277.

What about the relative viability (BMX-IN-1 + Tozasertib; first compound 0.02 µM) of the same cell line?
The relative viability was 0.322.

What about the relative viability (BMX-IN-1 + Tozasertib; first compound 0.2 µM) of the same cell line?
The relative viability was 0.318.

What about the relative viability (BMX-IN-1 + Tozasertib; first compound 0.6325 µM) of the same cell line?
Its relative viability is 0.279.

And the relative viability (BMX-IN-1 + Tozasertib; first compound 2 µM)?
Its relative viability is 0.313.

Which results are given for NCI-H1355?
relative viability (BMX-IN-1 + OSI-027; first compound 0.02 µM): 0.386; relative viability (BMX-IN-1 + OSI-027; first compound 0.2 µM): 0.393; relative viability (BMX-IN-1 + OSI-027; first compound 0.6325 µM): 0.482; relative viability (BMX-IN-1 + OSI-027; first compound 2 µM): 0.424; relative viability (BMX-IN-1 + Luminespib; first compound 0.02 µM): 0.75; relative viability (BMX-IN-1 + Luminespib; first compound 0.2 µM): 0.724; relative viability (BMX-IN-1 + Luminespib; first compound 0.6325 µM): 0.699; relative viability (BMX-IN-1 + Luminespib; first compound 2 µM): 0.711; relative viability (Ibrutinib + Tozasertib; first compound 0.005 µM): 0.601; relative viability (Ibrutinib + Tozasertib; first compound 0.01581 µM): 0.518; relative viability (Ibrutinib + Tozasertib; first compound 0.05 µM): 0.517; relative viability (Ibrutinib + Tozasertib; first compound 0.1581 µM): 0.62; relative viability (Ibrutinib + Tozasertib; first compound 0.5 µM): 0.491; relative viability (BMX-IN-1 + Tozasertib; first compound 0.02 µM): 0.607; relative viability (BMX-IN-1 + Tozasertib; first compound 0.2 µM): 0.664; relative viability (BMX-IN-1 + Tozasertib; first compound 0.6325 µM): 0.532; relative viability (BMX-IN-1 + Tozasertib; first compound 2 µM): 0.518

With NCI-H1395 as the cell line, how does the relative viability (BMX-IN-1 + OSI-027; first compound 0.02 µM) read?
The relative viability was 0.645.

What about the relative viability (BMX-IN-1 + OSI-027; first compound 0.2 µM) of the same cell line?
Its relative viability is 0.64.

And the relative viability (BMX-IN-1 + OSI-027; first compound 0.6325 µM)?
Its relative viability is 0.647.

And the relative viability (BMX-IN-1 + OSI-027; first compound 2 µM)?
The relative viability was 0.637.

What about the relative viability (BMX-IN-1 + Luminespib; first compound 0.02 µM) of the same cell line?
Its relative viability is 0.745.

What about the relative viability (BMX-IN-1 + Luminespib; first compound 0.2 µM) of the same cell line?
The relative viability was 0.546.

What about the relative viability (BMX-IN-1 + Luminespib; first compound 0.6325 µM) of the same cell line?
Its relative viability is 0.71.

What about the relative viability (BMX-IN-1 + Luminespib; first compound 2 µM) of the same cell line?
Its relative viability is 0.887.

What about the relative viability (Ibrutinib + Tozasertib; first compound 0.005 µM) of the same cell line?
The relative viability was 0.77.

What about the relative viability (Ibrutinib + Tozasertib; first compound 0.01581 µM) of the same cell line?
Its relative viability is 0.688.

What about the relative viability (Ibrutinib + Tozasertib; first compound 0.05 µM) of the same cell line?
Its relative viability is 0.782.

And the relative viability (Ibrutinib + Tozasertib; first compound 0.1581 µM)?
Its relative viability is 0.74.

What about the relative viability (Ibrutinib + Tozasertib; first compound 0.5 µM) of the same cell line?
The relative viability was 0.776.

What about the relative viability (BMX-IN-1 + Tozasertib; first compound 0.02 µM) of the same cell line?
Its relative viability is 0.832.

What about the relative viability (BMX-IN-1 + Tozasertib; first compound 0.2 µM) of the same cell line?
The relative viability was 0.793.

And the relative viability (BMX-IN-1 + Tozasertib; first compound 0.6325 µM)?
Its relative viability is 0.701.

And the relative viability (BMX-IN-1 + Tozasertib; first compound 2 µM)?
The relative viability was 0.715.

Which results are given for NCI-H1437?
relative viability (BMX-IN-1 + OSI-027; first compound 0.02 µM): 1.05; relative viability (BMX-IN-1 + OSI-027; first compound 0.2 µM): 0.912; relative viability (BMX-IN-1 + OSI-027; first compound 0.6325 µM): 0.916; relative viability (BMX-IN-1 + OSI-027; first compound 2 µM): 0.845; relative viability (BMX-IN-1 + Luminespib; first compound 0.02 µM): 1.41; relative viability (BMX-IN-1 + Luminespib; first compound 0.2 µM): 1.23; relative viability (BMX-IN-1 + Luminespib; first compound 0.6325 µM): 1.15; relative viability (BMX-IN-1 + Luminespib; first compound 2 µM): 1.16; relative viability (Ibrutinib + Tozasertib; first compound 0.005 µM): 0.437; relative viability (Ibrutinib + Tozasertib; first compound 0.01581 µM): 0.373; relative viability (Ibrutinib + Tozasertib; first compound 0.05 µM): 0.472; relative viability (Ibrutinib + Tozasertib; first compound 0.1581 µM): 0.403; relative viability (Ibrutinib + Tozasertib; first compound 0.5 µM): 0.391; relative viability (BMX-IN-1 + Tozasertib; first compound 0.02 µM): 0.497; relative viability (BMX-IN-1 + Tozasertib; first compound 0.2 µM): 0.43; relative viability (BMX-IN-1 + Tozasertib; first compound 0.6325 µM): 0.38; relative viability (BMX-IN-1 + Tozasertib; first compound 2 µM): 0.414

What does the source list for NCI-H1623?
relative viability (BMX-IN-1 + OSI-027; first compound 0.02 µM): 0.42; relative viability (BMX-IN-1 + OSI-027; first compound 0.2 µM): 0.456; relative viability (BMX-IN-1 + OSI-027; first compound 0.6325 µM): 0.528; relative viability (BMX-IN-1 + OSI-027; first compound 2 µM): 0.409; relative viability (BMX-IN-1 + Luminespib; first compound 0.02 µM): 0.431; relative viability (BMX-IN-1 + Luminespib; first compound 0.2 µM): 0.52; relative viability (BMX-IN-1 + Luminespib; first compound 0.6325 µM): 0.804; relative viability (BMX-IN-1 + Luminespib; first compound 2 µM): 0.484; relative viability (Ibrutinib + Tozasertib; first compound 0.005 µM): 0.44; relative viability (Ibrutinib + Tozasertib; first compound 0.01581 µM): 0.407; relative viability (Ibrutinib + Tozasertib; first compound 0.05 µM): 0.301; relative viability (Ibrutinib + Tozasertib; first compound 0.1581 µM): 0.451; relative viability (Ibrutinib + Tozasertib; first compound 0.5 µM): 0.201; relative viability (BMX-IN-1 + Tozasertib; first compound 0.02 µM): 0.494; relative viability (BMX-IN-1 + Tozasertib; first compound 0.2 µM): 0.465; relative viability (BMX-IN-1 + Tozasertib; first compound 0.6325 µM): 0.447; relative viability (BMX-IN-1 + Tozasertib; first compound 2 µM): 0.394
